One test deals with αvβ6 (UniProt P18564+P43406). The test can be described thus: cell-based. Details: species or system mouse.
For another test, the system named is A375Ppuro. The class given is cell-based, human.
The next test concerns A375Pβ6puro. It is filed as cell-based, human.
The target in another test is rsαvβ6 (Homo sapiens, UniProt P06756+P18564). The test can be described thus: biochemical. It is filed as binding.

Experimental findings from patent publication US8927501B2, “αvβ6 peptide ligands and their uses” (priority 2005, dated 2015) are described below.

pEC50, pIC50: −log10 of the molar value. Where a SMILES comes first, the peptide text is derived from it. Where no end group is shown, it is not given here. The star is where a group is joined. Biotin = O=C1N[C@H]2[C@H](CS[C@H]2CCCCC(=O)*)N1; Ahx = NCCCCCC(=O)O

rsαvβ6, sequence (P06756 31-992 limits assumed): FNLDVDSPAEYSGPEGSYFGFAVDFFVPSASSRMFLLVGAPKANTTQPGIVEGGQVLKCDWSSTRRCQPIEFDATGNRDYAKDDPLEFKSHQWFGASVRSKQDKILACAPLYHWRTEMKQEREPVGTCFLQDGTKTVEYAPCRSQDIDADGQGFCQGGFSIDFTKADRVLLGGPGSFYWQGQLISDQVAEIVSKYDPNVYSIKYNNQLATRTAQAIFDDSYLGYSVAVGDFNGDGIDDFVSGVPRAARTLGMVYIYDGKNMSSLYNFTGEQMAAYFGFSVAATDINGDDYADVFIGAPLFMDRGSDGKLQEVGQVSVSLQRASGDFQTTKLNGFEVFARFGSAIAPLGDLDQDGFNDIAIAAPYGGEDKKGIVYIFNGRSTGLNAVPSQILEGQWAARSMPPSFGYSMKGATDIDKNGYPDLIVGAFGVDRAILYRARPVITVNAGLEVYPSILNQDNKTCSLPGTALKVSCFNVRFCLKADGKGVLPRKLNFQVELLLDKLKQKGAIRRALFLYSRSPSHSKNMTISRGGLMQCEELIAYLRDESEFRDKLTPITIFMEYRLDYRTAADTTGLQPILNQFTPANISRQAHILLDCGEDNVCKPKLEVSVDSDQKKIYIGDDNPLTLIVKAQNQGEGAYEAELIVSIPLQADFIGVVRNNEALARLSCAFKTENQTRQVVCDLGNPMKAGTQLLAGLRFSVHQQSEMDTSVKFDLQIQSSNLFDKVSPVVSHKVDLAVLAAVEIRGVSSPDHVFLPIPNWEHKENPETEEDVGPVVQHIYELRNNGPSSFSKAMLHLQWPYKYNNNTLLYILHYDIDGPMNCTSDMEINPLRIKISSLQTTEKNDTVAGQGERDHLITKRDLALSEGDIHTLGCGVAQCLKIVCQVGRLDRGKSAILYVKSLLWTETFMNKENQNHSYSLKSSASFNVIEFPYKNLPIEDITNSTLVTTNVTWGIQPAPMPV
rsαvβ6, sequence (P18564 22-709 limits assumed): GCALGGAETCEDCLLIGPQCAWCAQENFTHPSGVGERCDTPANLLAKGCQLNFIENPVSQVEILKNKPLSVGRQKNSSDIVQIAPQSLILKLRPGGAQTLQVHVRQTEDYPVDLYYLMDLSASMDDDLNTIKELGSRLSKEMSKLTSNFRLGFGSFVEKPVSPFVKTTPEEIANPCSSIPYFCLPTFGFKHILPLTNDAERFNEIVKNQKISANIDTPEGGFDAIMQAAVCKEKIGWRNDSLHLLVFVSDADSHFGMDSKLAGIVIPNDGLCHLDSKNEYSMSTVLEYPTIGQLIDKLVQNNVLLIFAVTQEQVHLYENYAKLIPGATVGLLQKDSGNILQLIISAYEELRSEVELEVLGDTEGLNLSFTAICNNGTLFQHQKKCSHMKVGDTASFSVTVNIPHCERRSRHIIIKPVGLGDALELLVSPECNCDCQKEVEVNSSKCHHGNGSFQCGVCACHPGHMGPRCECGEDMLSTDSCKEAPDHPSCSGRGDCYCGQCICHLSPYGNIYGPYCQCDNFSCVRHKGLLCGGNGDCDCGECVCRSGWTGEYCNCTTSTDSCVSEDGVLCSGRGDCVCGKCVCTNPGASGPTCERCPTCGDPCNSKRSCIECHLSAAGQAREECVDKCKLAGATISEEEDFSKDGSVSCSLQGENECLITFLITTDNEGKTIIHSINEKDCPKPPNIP

Turning to SAAARGDLEQLTSLLQNNVNV [P18-INK], the “inhibition of αvβ6-dependent adhesion / binding affinity to αvβ6” value with αvβ6 was “significantly greater than that of DD19”.
With “Biotin-εAhx-eykCKLVGALQPDNVLQRCRTK [B-Ran, reference compound]”, the “binding to A375Ppuro” value in the test with A375Ppuro was “did not bind”. Moreover, in the test with A375Pβ6puro, the “binding to A375Pβ6 in the presence of 63G9” value (“binding to A375Pβ6 … of 63G9” for short) is on record as “did not bind”, the “binding to A375Pβ6 in the presence of control IgG” value (from here on “binding … of control IgG”) was “did not bind” and the “binding to A375Pβ6puro” value is “did not bind”. The “binding of biotinylated peptide to immobilised rsαvβ6” value (“binding of biotinylated peptide” for short) on rsαvβ6 is listed as “did not show any binding”.
For the molecule `CC(C)C[C@H](NC(=O)[C@H](CC(=O)O)NC(=O)CNC(=O)[C@H](CCCNC(=N)N)NC(=O)[C@H](CC(C)C)NC(=O)[C@H](CC(N)=O)NC(=O)[C@@H]1CCCN1C(=O)[C@@H](NC(=O)[C@H](C)NC(=O)[C@@H](N)CC(N)=O)C(C)C)C(=O)N[C@@H](CCC(N)=O)C(=O)N[C@H](C(=O)N[C@@H](CC(C)C)C(=O)N[C@@H](C)C(=O)N[C@@H](CCC(N)=O)C(=O)N[C@@H](CCCCN)C(=O)N[C@H](C(=O)N[C@@H](C)C(=O)N[C@@H](CCCNC(=N)N)C(=O)N[C@H](C(=O)O)[C@@H](C)O)C(C)C)C(C)C` [A20FMDV2], in the test with A375Ppuro, the “binding to A375Ppuro” value is given as “only at 10 μM”. Further, in the test with A375Pβ6puro, the “binding to A375Pβ6puro” value is “observed at 10 μM, 1μM, 0.1 μM, 0.01 μM and 0.00 μM”; the “differential binding A375Pβ6puro versus A375Ppuro” value is “four orders of magnitude”.
As usually defined, the pEC50 is the EC50 on a negative log10 scale, so that one unit is a factor of ten. `CC(C)C[C@@H]1NC(=O)[C@H](CC(=O)O)NC(=O)CNC(=O)[C@H](CCCNC(=N)N)NC(=O)[C@H](CC(C)C)NC(=O)[C@H](CC(N)=O)NC(=O)[C@@H]2CCCN2C(=O)[C@H](C(C)C)NC(=O)[C@H](Cc2ccc(O)cc2)NC(=O)[C@@H](NC(=O)CCCCCNC(=O)CCCC[C@@H]2SC[C@@H]3NC(=O)N[C@@H]32)CSSC[C@@H](C(=O)O)NC(=O)[C@H](CCCCN)NC(=O)[C@H](C)NC(=O)[C@H](C(C)C)NC(=O)[C@H](CCCCN)NC(=O)[C@H](CCC(N)=O)NC(=O)[C@H](C)NC(=O)[C@H](CC(C)C)NC(=O)[C@H](C(C)C)NC(=O)[C@H](CCC(N)=O)NC1=O` [B-DBD2]: the “binding to A375Ppuro” value in the test on A375Ppuro was “only low levels of binding”. Moreover, in the test with A375Pβ6puro, the “binding to A375Pβ6 … of 63G9” value is on record as “completely abolished”, the “binding … of control IgG” value is “bound strongly” and the “binding to A375Pβ6puro” value is given as “high levels of binding at concentrations as low as 1 nM”. Also, on rsαvβ6, the pEC50 was 8.77 and the “binding of biotinylated peptide” value is on record as “concentration-dependent binding”.
The pIC50 is the IC50 on a negative log10 scale, so that one unit is a factor of ten. A low value points to a high IC50. For `CC[C@H](C)[C@H](NC(=O)[C@@H](NC(=O)[C@H](C)NC(=O)[C@H](CC(C)C)NC(=O)[C@H](CC(=O)O)NC(=O)CNC(=O)[C@H](CCCNC(=N)N)NC(=O)[C@@H](N)CCCNC(=N)N)[C@@H](C)O)C(=O)N[C@@H](Cc1c[nH]cn1)C(=O)O` [DD1], on αvβ6, the pIC50 is 3.67 and the “adhesion of 3T3β6.19 to LAP, % of control cell adhesion” value was determined as 57±4%.
As for `CC(C)C[C@@H]1NC(=O)[C@H](CC(=O)O)NC(=O)CNC(=O)[C@H](CCCNC(=N)N)NC(=O)[C@H](CC(C)C)NC(=O)[C@H](CC(N)=O)NC(=O)[C@@H]2CCCN2C(=O)[C@@H](NC(=O)[C@@H](CCCCN)NC(=O)[C@@H](Cc2ccc(O)cc2)NC(=O)[C@@H](CCC(=O)O)NC(=O)CCCCCNC(=O)CCCC[C@@H]2SC[C@@H]3NC(=O)N[C@@H]32)CSSC[C@@H](C(=O)N[C@@H](CCCNC(=N)N)C(=O)N[C@H](C(=O)N[C@@H](CCCCN)C(=O)O)[C@@H](C)O)NC(=O)[C@H](C(C)C)NC(=O)[C@H](CCCCN)NC(=O)[C@H](CCC(N)=O)NC(=O)[C@H](C)NC(=O)[C@H](CC(C)C)NC(=O)[C@H](C(C)C)NC(=O)[C@H](CCC(N)=O)NC1=O` [B-DBD1], the “binding to A375Ppuro” value in the test with A375Ppuro is given as “only low levels of binding”. Moreover, in the test with A375Pβ6puro, the “binding to A375Pβ6 … of 63G9” value was “greatly reduced”, the “binding … of control IgG” value is reported as “bound strongly” and the “binding to A375Pβ6puro” value is reported as “high levels of binding at concentrations as low as 1 nM”. For the same molecule, at rsαvβ6, the negative logarithm of the EC50 (pEC50) is 9.16 and the “binding of biotinylated peptide” value is “concentration-dependent binding”.
For `CC(C)C[C@H](NC(=O)[C@H](CC(=O)O)NC(=O)CNC(=O)[C@H](CCCNC(=N)N)NC(=O)[C@H](C)NC(=O)[C@H](C)NC(=O)[C@H](C)NC(=O)[C@@H](N)CO)C(=O)N[C@@H](CCC(=O)O)C(=O)N[C@@H](CCC(N)=O)C(=O)N[C@@H](CC(C)C)C(=O)N[C@H](C(=O)N[C@@H](CO)C(=O)N[C@@H](CC(C)C)C(=O)N[C@@H](CC(C)C)C(=O)N[C@@H](CCC(N)=O)C(=O)N[C@@H](CC(N)=O)C(=O)N[C@@H](CC(N)=O)C(=O)N[C@H](C(=O)N[C@@H](CC(N)=O)C(=O)O)C(C)C)[C@@H](C)O` [P-INK] (H-SAAARGDLEQLTSLLQNNVN-OH; N-terminus assumed), the “inhibition of αvβ6-dependent adhesion / binding affinity to αvβ6” value at αvβ6 is “inhibited αvβ6-dependent adhesion”.
For the molecule “{Biotin-Ahx}-PGRTFHRFGMGAITRTGNDL [B-A20LAP-Ran, reference compound]”, at rsαvβ6, the “binding of biotinylated peptide” value is “did show binding at 10 μM and 1 μM”.
For the molecule `CC(C)C[C@H](NC(=O)[C@H](CC(=O)O)NC(=O)CNC(=O)[C@H](CCCNC(=N)N)NC(=O)[C@H](CC(C)C)NC(=O)[C@H](CC(N)=O)NC(=O)[C@@H]1CCCN1C(=O)[C@@H](NC(=O)[C@H](C)NC(=O)[C@H](CC(N)=O)NC(=O)CCCCCNC(=O)CCCC[C@@H]1SC[C@@H]2NC(=O)N[C@@H]21)C(C)C)C(=O)N[C@@H](CCC(N)=O)C(=O)N[C@H](C(=O)N[C@@H](CC(C)C)C(=O)N[C@@H](C)C(=O)N[C@@H](CCC(N)=O)C(=O)N[C@@H](CCCCN)C(=O)N[C@H](C(=O)N[C@@H](C)C(=O)N[C@@H](CCCNC(=N)N)C(=O)N[C@H](C(=O)O)[C@@H](C)O)C(C)C)C(C)C` [B-A20FMDV2], the “binding to A375Ppuro” value in the test with A375Ppuro was “only low levels of binding”. Moreover, in the test on A375Pβ6puro, the “binding to A375Pβ6 … of 63G9” value is on record as “completely abolished”, the “binding … of control IgG” value is recorded as “bound strongly” and the “binding to A375Pβ6puro” value was “high levels of binding at concentrations as low as 1 nM”.
As to `CC(C)C[C@H](NC(=O)[C@H](CC(=O)O)NC(=O)CNC(=O)[C@H](CCCNC(=N)N)NC(=O)[C@H](CC(C)C)NC(=O)[C@H](CC(N)=O)NC(=O)[C@@H]1CCCN1C(=O)[C@@H](NC(=O)[C@H](C)NC(=O)[C@@H](N)CC(N)=O)C(C)C)C(=O)N[C@@H](CCC(N)=O)C(=O)N[C@@H](C(=O)N[C@@H](CC(C)C)C(=O)N[C@@H](C)C(=O)N[C@@H](CCC(N)=O)C(=O)N[C@@H](CCCCN)C(=O)N[C@@H](C(=O)N[C@@H](C)C(=O)N[C@@H](CCCNC(=N)N)C(=O)N[C@H](C(=O)O)[C@@H](C)O)C(C)C)C(C)C` [DV1217], in the test on A375Ppuro, the “binding to A375Ppuro” value is given as “did not bind noticeably”. In the test with A375Pβ6puro, the “binding to A375Pβ6puro” value is “bound to A375Pβ6 at 10 μM and at 1 μM”; the “loss of anti-αvβ6 potency versus A20FMDV2” value was determined as 1000 fold.
